Patent US20140171445A1, “TREATMENT AND PREVENTION OF DISEASES MEDIATED BY MICROORGANISMS VIA DRUG-MEDIATED MANIPULATION OF THE EICOSANOID BALANCE” (priority 2011, published 2014)

Assays:
[1] = system: Mycobacterium tuberculosis; set-up: species or system C57BL6 mice; settings: mouse, in vivo
[2] = system: tuberculosis; settings: intranasal; Antonelli et al., J. Clin. Investigation 2010; cited from earlier work
[3] = system: Mycobacterium tuberculosis

Compound | colony forming units (CFU) in lungs [1] | effect on tuberculosis in mice [2] | mice that survived past day 53 post-infection ([3]; M. tuberculosis-infected B6 mice treated with poly-ICLC alone, five mice) | mean weight as % of starting weight ([3]; M. tuberculosis-infected B6 mice, after 31 days, treated with intranasal poly-ICLC twice weekly)
poly-ICLC | approximately 8.9 log^10 CFU | exacerbate tuberculosis | None | approximately 74%
CC(c1cc2ccccc2s1)N(O)C(N)=O (centres unmarked) [zileuton] | approximately 7.6 log^10 CFU | – | – | –
